Experimental data published in a melting point compilation (Tetko et al.; mined from patent text by program, amines drawn as free bases though some values may be those of a salt).

SMILES	melting point
CC(=CC(=O)OCCCCCCCCC(=O)O)CC1OCC(CC2OC2C(C)C(C)O)C(O)C1O (centres undefined)	73 to 75 °C
CSc1nc(O)cc(O)n1	> 250 °C
CCOC(=O)c1ccc(OCCCCCCc2cc(C)no2)cc1	51 °C
COc1ccc2c(c1)CCC(C=O)=C2C	70 to 72 °C
CCn1c(COC)nc(C(C)C)c1Sc1cc(C#N)cc(C#N)c1	156 to 158 °C
Cc1nn2c(-c3cccc(NC(=O)CC(C)C)c3)ccnc2c1C(=O)c1cccs1	137 to 139 °C
CN(C)c1ncc(-c2cccc(N)c2)cn1	116 to 117 °C
CCN(CC)c1ccc(N(c2ccc(N(C)C)cc2)C2(c3ccc(N(CC)CC)cc3C)OC(=O)c3ccccc32)cc1 (centres undefined)	68 to 83 °C
CCc1cccc(Nc2nc(OCC3CCCCC3)c3[nH]cnc3n2)c1	180 to 183 °C
Cc1cc(CO)c(C)cc1O	164 to 165 °C
Cn1c(=O)c(C(=O)NC2CCCCC2)c(Cl)c2cc(O)ccc21	186 °C
Cc1ccc(-c2cn(C)cc(-c3ccc(Cl)c(Cl)c3)c2=O)cc1C	150 to 152 °C
COCOc1cc(-n2c(OC)nc(C(F)(F)F)cc2=O)c(F)cc1Cl	97 to 98 °C
COCCOCc1ccc(C#CC2(O)CN3CCC2CC3)c(F)c1 (centres undefined)	117 to 118 °C
CCCCNc1c(C(=O)OCC)cnc2cn[nH]c12	86 to 95 °C
COc1ccc(CN2C(=O)CNS2(=O)=O)cc1	111 to 113 °C
COc1ccc(CN2CCC(c3cn(Cc4ccoc4)c4ccccc34)CC2)cc1C(=O)O	253 to 255 °C
CC(C)(C)c1cc(-c2nc(Br)no2)cc(C(C)(C)C)c1O	113 to 115 °C
CC1=CC(O)C(OC(=O)c2ccccc2)C(C)(C)CC1=O (centres undefined)	99 to 100 °C
O=S(=O)(c1ccc(Cl)cc1)C(c1cc(F)ccc1F)c1cc(NCCO)ncc1Cl (centres undefined)	168 to 169 °C
CCOC(=O)c1c(COc2nccn2C)nc2cc(OC)c(OC)cc2c1-c1ccc(OC)c(OC)c1	151 to 152 °C

The next lines start with the values.

melting point	SMILES
196 to 198 °C	O=C(O)c1cccc(C[C@@H]2COc3ccc(OCc4ccccn4)cc3[C@@H]2O)c1 (relative stereo)
190 to 193 °C	CC(C)(C)NS(=O)(=O)c1ccccc1-c1ccc(NC(=O)C(C)(C)Nc2cccc(C#N)c2)cc1
248 to 249 °C	COc1cc(C(=O)NS(=O)(=O)c2ccccc2C)ccc1Cc1cccc2ccc(NC(=O)CC3CCCC3)cc12
220 to 221 °C	CN=c1[nH]c2ccccc2c2nc(-c3ccc[nH]3)nn12
166 to 167 °C	O=C(O)COc1ccc(-c2noc3ccccc23)c(Cl)c1Cl
239 °C	CN(C(=O)CCc1ccccc1)c1ccc(C(=O)NN=C2C(=O)Nc3ccc(I)cc32)cc1
99 to 101 °C	COc1cccc(C2=C(c3cn4c5c(cccc35)CCC4)C(=O)NC2=O)c1
194 to 199 °C	c1ccc(C2=NNC(c3ccccc3)C2)cc1 (centres undefined)
249 to 251 °C	CC1(C)CC(=O)Nc2cc(C(=O)Nc3ccccc3)ccc21
200 °C	N=C(NO)c1cccc2nc(N[C@@H]3CCc4ccccc43)ccc12
125 to 127 °C	CC1(C2CC2)NC(=O)Nc2ccc(-c3cccc(Cl)c3)cc21 (centres undefined)
89 to 90 °C	N[C@H](Cc1ccc(C(F)(F)F)cc1)[C@@H](O)c1cccc(Cl)n1 (racemic)
75 to 76 °C	C(=C\c1nc(COc2cccc(CCCCn3ccnc3)c2)co1)/c1ccccc1
51 to 57 °C	CCOC(=O)C1=C(CO)NC(C)=C(C(=O)OCc2ccccc2)C1c1ccccc1[N+](=O)[O-] (centres undefined)
39.5 to 41 °C	COc1cc([N+](=O)[O-])c2nccc(C)c2c1OCCCCCCCCc1ccccc1
174 to 176 °C	Cc1cc(OCc2sc(-c3ccc(C(F)(F)F)cc3)nc2C)ccc1OCC(=O)O
93 to 95 °C	COc1ccccc1C1CC=NN1C(=O)c1cccnc1 (centres undefined)
58 to 63 °C	COc1cccc2c1OCN(CCc1ccc(C)cc1)C2
